ChEMBL document CHEMBL1759844, “Design, synthesis and antimycobacterial activity of cinnamide derivatives: a molecular hybridization approach” (Bioorg Med Chem Lett, 2011)

Tests used:
[1] = test system: Mycobacterium tuberculosis; assay: Antimicrobial activity against Mycobacterium tuberculosis H37Rv after 48 hrs by resazurin microplate broth microdilution method; assay type: functional
[2] = Cytotoxicity against african green monkey Vero cells after 72 hrs by MTT assay; assay type: cell-based; settings: chlorocebus sabaeus
[3] = Selectivity index, ratio of CC50 for african green monkey Vero cells to MIC for Mycobacterium tuberculosis H37Rv; assay type: functional
[4] = test system: Mycobacterium tuberculosis; assay: Antimicrobial activity against Mycobacterium tuberculosis H37Rv after 48 hrs by resazurin microplate broth microdilution method in presence of rifampicin; assay type: functional

| SMILES | MIC [1] | CC50 at 72 h [2] | Selectivity Index [3] | fractional inhibitory concentration index (FICI) [4] |
| --- | --- | --- | --- | --- |
| O=C(/C=C/c1ccc(Cl)cc1)NCCNC(=O)/C=C/c1ccc(Cl)cc1 | 129 µM | 788 µM | 6 | – |
| O=C(/C=C/c1c(Cl)cccc1Cl)NCCNC(=O)/C=C/c1c(Cl)cccc1Cl | 54.8 µM | 653 µM | 12 | – |
| O=C(/C=C/c1ccccc1Cl)NCCNC(=O)/C=C/c1ccccc1Cl | 64.4 µM | 725 µM | 11 | – |
| O=C(/C=C/c1ccco1)NCCNC(=O)/C=C/c1ccco1 | 10.8 µM | 683 µM | 63 | – |
| CO[C@H]1/C=C/O[C@@]2(C)Oc3c(C)c(O)c4c(O)c(c(/C=N/N5CCN(C)CC5)c(O)c4c3C2=O)NC(=O)/C(C)=C\C=C\[C@H](C)[C@H](O)[C@@H](C)[C@@H](O)[C@@H](C)[C@H](OC(C)=O)[C@@H]1C [RIFAMPIN] | 0.125 µg/mL | – | – | – |
| COc1ccc(/C=C/C(=O)NCCNC(=O)/C=C/c2ccc(OC)cc2)cc1 | 132 µM | 680 µM | 5 | – |
| Cc1ccc(/C=C/C(=O)NCCNC(=O)/C=C/c2ccc(C)cc2)cc1 | 144 µM | 565 µM | 4 | – |
| O=C(/C=C/c1cccc([N+](=O)[O-])c1)NCCNC(=O)/C=C/c1cccc([N+](=O)[O-])c1 | 68.5 µM | 615 µM | 9 | – |
| O=C(/C=C/c1ccccc1)N1CCN(C(=O)/C=C/c2ccccc2)CC1 | 9 µM | 855 µM | 95 | – |
| CC[C@@H](CO)NCCN[C@@H](CC)CO [ETHAMBUTOL] | 15.3 µM | 1470 µM | 96 | – |
| O=C(/C=C/c1ccccc1)N1CCCN(C(=O)/C=C/c2ccccc2)CC1 | 17.3 µM | 708 µM | 41 | – |
| O=C(/C=C/c1ccc(Cl)c(Cl)c1)NCCNC(=O)/C=C/c1ccc(Cl)c(Cl)c1 | 54.8 µM | 653 µM | 12 | – |
| O=C(/C=C/c1cccs1)NCCNC(=O)/C=C/c1cccs1 | 9.41 µM | 692 µM | 74 | – |
| O=C(/C=C/c1ccccc1)NCCNC(=O)/C=C/c1ccccc1 | 5.1 µM | 618 µM | 121 | 0.31 |
| COc1ccccc1/C=C/C(=O)NCCNC(=O)/C=C/c1ccccc1OC | 65.8 µM | 695 µM | 11 | – |
| O=C(/C=C/c1ccccc1)NCCN1CCN(C(=O)/C=C/c2ccccc2)CC1 | 16.7 µM | 480 µM | 29 | – |
